The melting point is the temperature of the solid-liquid transition. By IC50 is commonly meant the concentration that inhibits the measured activity by half. Read a high IC50 as lower potency.

The structures appear in SMILES notation.

The results in this text go back to patent publication US7459567B2, “Substituted thienyl and furyl acylguanidines and methods of their use as beta-secretase modulators” (Wyeth, priority 2005, dated 2008).

For series [1], the target named is human BACE1 (Homo sapiens, UniProt P56817). Description: Fluorescent kinetic assay, BACE1 inhibition (FRET peptide substrate cleavage). The conditions noted are these: 10 nM BACE1, 25 μM substrate WABC-6, 50 mM Na-Acetate pH 4.5, room temperature. The format is biochemical.
human BACE1, sequence (P56817 46-501): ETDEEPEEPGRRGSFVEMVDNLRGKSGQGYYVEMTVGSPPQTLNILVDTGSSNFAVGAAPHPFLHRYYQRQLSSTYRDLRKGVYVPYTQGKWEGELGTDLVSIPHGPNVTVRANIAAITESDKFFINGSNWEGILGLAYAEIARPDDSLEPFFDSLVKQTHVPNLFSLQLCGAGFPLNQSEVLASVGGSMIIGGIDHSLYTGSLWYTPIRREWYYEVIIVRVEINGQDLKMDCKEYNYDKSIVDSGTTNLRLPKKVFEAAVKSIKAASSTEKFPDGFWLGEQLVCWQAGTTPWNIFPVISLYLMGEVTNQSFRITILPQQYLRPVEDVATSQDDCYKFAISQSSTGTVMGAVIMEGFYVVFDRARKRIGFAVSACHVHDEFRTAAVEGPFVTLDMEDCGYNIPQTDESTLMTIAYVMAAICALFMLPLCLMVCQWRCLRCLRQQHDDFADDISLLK

Turning to `CCC(CC)NC(=O)c1ccc(-c2scc(-c3ccccc3Cl)c2CC(=O)NC(=N)NCCCO)cc1` [Example 13, 4-[4-(2-Chlorophenyl)-3-(2-{[[(3-hydroxypropyl)amino](imino)-methyl]amino}-2-oxoethyl)thien-2-yl]-N-(1-ethylpropyl)benzamide], the melting point was in the range of 109 to 110 °C.

`CCCOc1ccc(-c2scc(-c3ccccc3Cl)c2CC(=O)NC(=N)NCCCO)c(C)c1` [Example 19, 2-[4-(2-Chlorophenyl)-2-(2-methyl-4-propoxyphenyl)thien-3-yl]-N-[[(3-hydroxypropyl)amino](imino)methyl]acetamide]: the melting point was 103 to 105.5 °C.

Regarding `CCCOc1ccc(-c2csc(-c3ccccc3Cl)c2CC(=O)N=C(N)N)cc1` [Example 5, N″-{[2-(2-Chlorophenyl)-4-(4-propoxyphenyl)thien-3-yl]acetyl}guanidine], the melting point fell in the range of 111 to 113 °C.

For `CCCOc1ccc(-c2scc(-c3ccccc3Cl)c2CC(=O)NC(=N)NCCCO)cc1` [Example 12, 2-[4-(2-Chlorophenyl)-2-(4-propoxyphenyl)thien-3-yl]-N-[[(3-hydroxypropyl)amino](imino)methyl]acetamide], the melting point fell in the range of 49 to 50 °C.

Take `CCC(=O)c1ccc(Oc2ccc(-c3scc(-c4ccccc4Cl)c3CC(=O)N=C(N)N)cc2)cc1` [Example 10, N″-({4-(2-Chlorophenyl)-2-[4-(4-propionylphenoxy)phenyl]thien-3-yl}acetyl)guanidine]: the melting point fell in the range of 123 to 124 °C. The compound further registered an IC50 in series [1] of 1730 nM.

`CCCOc1ccc(-c2scc(-c3ccccc3Cl)c2CC(=O)N=C(N)N)cc1` [Example 1, N″-{[4-(2-Chlorophenyl)-2-(4-propoxyphenyl)thien-3-yl]acetyl}guanidine] gave a melting point of 98 to 99 °C.

With `NC(N)=NC(=O)Cc1c(-c2ccccc2)csc1-c1ccc(Oc2ccccc2)cc1` [Example 3, N″-{[2-(4-Phenoxyphenyl)-4-phenylthien-3-yl]acetyl}guanidine], the melting point is 116 to 118 °C. The midpoint of inhibition in series [1], the IC50, lay at 2060 nM.

Compound `CCCCNC(=O)c1ccc(-c2scc(-c3ccccc3Cl)c2CC(=O)NC(=N)NCCCO)cc1` [Example 17, N-Butyl-4-[4-(2-chlorophenyl)-3-(2-{[[(3-hydroxypropyl)amino]-(imino)methyl]amino}-2-oxoethyl)thien-2-yl]benzamide] registered a melting point of 92 to 95 °C.

Regarding `CCCOc1ccc(-c2scc(-c3ccccc3OC(F)(F)F)c2CC(=O)N=C(N)N)cc1` [Example 6, N″-({2-(4-Propoxyphenyl)-4-[2-(trifluoromethoxy)phenyl]thien-3-yl}acetyl)guanidine], the melting point fell in the range of 90 to 92 °C. Moreover, half-maximal inhibition in series [1] (IC50) required 1600 nM.

As to `NC(N)=NC(=O)Cc1c(-c2ccccc2Cl)csc1-c1ccc(Oc2ccccc2)cc1` [Example 4, N″-{[4-(2-Chlorophenyl)-2-(4-phenoxyphenyl)thien-3-yl]acetyl}guanidine], the melting point is 76 to 78 °C. In series [1], this compound returned a half-inhibitory concentration (IC50) of 1600 nM.

Regarding `NC(N)=NC(=O)Cc1c(-c2ccccc2Cl)csc1-c1ccc(OCCc2cn[nH]c2)cc1` [Example 11, 2-(4-(2-Chlorophenyl)-2-{4-[2-(1H-pyrazol-4-yl)ethoxy]phenyl}-thien-3-yl)-N-(diaminomethylene)acetamide], the melting point is 71 to 72 °C.

As to `NC(N)=NC(=O)Cc1c(-c2ccccc2)csc1-c1ccccc1` [Example 2, N″-[(2,4-Diphenylthien-3-yl)acetyl]guanidine], the melting point lay in the range of 204 to 205.5 °C.

Compound `CCCNC(=O)c1ccc(-c2scc(-c3ccccc3Cl)c2CC(=O)NC(=N)NCCCO)cc1` [Example 15, 4-[4-(2-Chlorophenyl)-3-(2-{[[(3-hydroxypropyl)amino](imino)-methyl]amino}-2-oxoethyl)thien-2-yl]-N-propylbenzamide] registered a melting point of 116 to 118 °C.

In turn, `N=C(NCCCO)NC(=O)Cc1c(-c2ccccc2Cl)csc1-c1ccc(C(=O)NCC(F)(F)F)cc1` [Example 14, 4-[4-(2-Chlorophenyl)-3-(2-{[[(3-hydroxypropyl)amino](imino)-methyl]amino}-2-oxoethyl)thien-2-yl]-N-(2,2,2-trifluoroethyl)benzamide] registered a melting point of 103 to 105 °C.

`N=C(NCCCO)NC(=O)Cc1c(-c2ccccc2Cl)csc1-c1ccc(C(=O)NCC2CC2)cc1` [Example 16, 4-[4-(2-Chlorophenyl)-3-(2-{[[(3-hydroxypropyl)amino](imino)-methyl]amino}-2-oxoethyl)thien-2-yl]-N-(cyclopropylmethyl)benzamide] registered a melting point of 100 to 101 °C.

As for `CCCOc1ccc(-c2csc(-c3ccccc3)c2CC(=O)N=C(N)N)cc1` [Example 8, N″-{[2-Phenyl-4-(4-propoxyphenyl)thien-3-yl]acetyl}guanidine], the melting point lay in the range of 131 to 132 °C.

Turning to `CCCOc1ccc(-c2scc(-c3ccccc3Cl)c2CC(=O)NC(=N)NCCCO)cc1C` [Example 18, 2-[4-(2-Chlorophenyl)-2-(3-methyl-4-propoxyphenyl)thien-3-yl]-N-[[(3-hydroxypropyl)amino](imino)methyl]acetamide], the melting point lay within 73 to 76 °C.

`CCCOc1ccc(-c2scc(-c3ccccc3)c2CC(=O)NC(=N)N)cc1` [Example 7, N-{[4-Phenyl-2-(4-propoxyphenyl)thien-3-yl]acetyl}guanidine] came in with a melting point of 94 to 95 °C.

`CC(=O)c1ccc(Oc2ccc(-c3scc(-c4ccccc4Cl)c3CC(=O)N=C(N)N)cc2)cc1` [Example 9, N″-{[2-[4-(4-Acetylphenoxy)phenyl]-4-(2-chlorophenyl)thien-3-yl]acetyl}guanidine]: the melting point was in the range of 117 to 118 °C.
